# Test results as given in ChEMBL document CHEMBL1201862, “PubChem BioAssay data set” (2004).
# The source made the active and inactive calls.
# Tests used:
# [1] = alpha-synuclein stem-loop luciferase translation blockers – H4 neuroglioma cells, luminescence, confirmation (AID 1988); type: functional, cell-based
# HEK293 [2] = experiment: cells; settings: Homo sapiens
# HT-1080 = experiment: HT1080 cell viability loss – fluorescence readout (AID 620); type: functional, cell-based; settings: Homo sapiens
# [3] = Luminescence Cell-Based Dose Response HTS to Identify Inhibitors of 5'UTR Stem-Loop Driven Prion Protein mRNA Translation in H4 Neuroglioblastoma Cells. [Related pubchem assays: 1827 (Project Summary), 1813 (Primary HTS)]; type: functional
# [4] = biological target: T1, DNA repair and recombination protein RAD54-like (Homo sapiens, UniProt Q92698); experiment: RAD54 Holliday junction migration blockers – biochemical, fluorescence, cherry-picked samples, dose series, confirmation (AID 651657); type: functional
# T1 sequence (Q92698 whole entry): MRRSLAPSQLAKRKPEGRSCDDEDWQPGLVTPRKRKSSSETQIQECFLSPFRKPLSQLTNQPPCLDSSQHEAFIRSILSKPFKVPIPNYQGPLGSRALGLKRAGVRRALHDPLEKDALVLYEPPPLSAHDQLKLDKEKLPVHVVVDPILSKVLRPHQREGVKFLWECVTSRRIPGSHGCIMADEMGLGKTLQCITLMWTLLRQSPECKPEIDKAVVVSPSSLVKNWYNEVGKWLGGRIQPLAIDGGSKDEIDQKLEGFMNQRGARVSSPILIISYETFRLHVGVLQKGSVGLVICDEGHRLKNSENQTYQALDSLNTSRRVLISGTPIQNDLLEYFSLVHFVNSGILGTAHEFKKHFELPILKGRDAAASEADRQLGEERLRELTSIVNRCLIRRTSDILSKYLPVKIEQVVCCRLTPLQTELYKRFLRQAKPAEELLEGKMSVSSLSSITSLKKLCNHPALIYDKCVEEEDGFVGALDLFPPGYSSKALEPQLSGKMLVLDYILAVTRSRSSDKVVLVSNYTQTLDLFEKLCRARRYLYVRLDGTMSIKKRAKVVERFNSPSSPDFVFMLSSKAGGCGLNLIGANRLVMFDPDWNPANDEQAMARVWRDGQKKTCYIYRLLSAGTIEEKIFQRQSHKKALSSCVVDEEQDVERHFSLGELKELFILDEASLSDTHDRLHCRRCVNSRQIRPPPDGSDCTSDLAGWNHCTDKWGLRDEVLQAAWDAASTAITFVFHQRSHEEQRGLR
# CAAX prenyl protease 2 = CAAX prenyl protease 2 (Homo sapiens, UniProt Q9Y256); experiment: inhibition of Ras-converting CAAX protease Rce1 – biochemical, yeast membranes, quenched-peptide fluorescence, cherry-pick, dose response (AID 588849)
# [5] = acridine orange displacement from DNA – biochemical, fluorescence polarization, cherry-pick, artefact control for RAD54 inhibitor project, dose response (AID 651673); type: functional
# [6] = biological target: Luciferin 4-monooxygenase (Photinus pyralis, UniProt P08659); experiment: Counter Screen for Luciferase-based Assay Positives. [Related pubchem assays: 620, 618, 411 ]
# HEK293 [7] = experiment: cells; settings: Homo sapiens; remark: listed apart in the source
# [8] = MIN6 cell viability loss – mouse insulinoma, cytotoxicity control, dose response (AID 2122); type: functional;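 further: confirmatory high-throughput counterscreen run to flag cytotoxic compounds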
# [9] = decrease of insulin promoter-GFP reporter – imaging, high-content screening, mouse beta cells (AID 1628); type: functional; settings: MIN6
# [10] = blockers of HIV-1 ZM109 envelope-driven cell-cell fusion – HeLa effector, CEM target cells, luciferase, cherry-pick, dose response (AID 652058); type: functional, cell-based;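 further: luciferase signal from HIV-1 Env mediated cell-cell fusion of effector and target cells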
# INS1 = experiment: INS-1E survival protection against cytokine death – cell-based, luminescence, retest, dose response (AID 449756); type: functional; settings: Rattus norvegicus;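 further: cell death triggered by IL-1 beta plus TNF-alpha plus IFN-gamma mixture; protective hits raise ATP signal compared with cytokine alone wells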
# Aminopeptidase N = biological target: T2, Aminopeptidase N (Plasmodium falciparum FcB1/Columbia, UniProt O96935); experiment: malaria alanyl aminopeptidase activity blockers – biochemical, fluorogenic H-Leu-NHMec substrate, 1536-well (AID 1445); set-up: species or system Plasmodium falciparum 3D7, 3D7
# T2 sequence (O96935 whole entry): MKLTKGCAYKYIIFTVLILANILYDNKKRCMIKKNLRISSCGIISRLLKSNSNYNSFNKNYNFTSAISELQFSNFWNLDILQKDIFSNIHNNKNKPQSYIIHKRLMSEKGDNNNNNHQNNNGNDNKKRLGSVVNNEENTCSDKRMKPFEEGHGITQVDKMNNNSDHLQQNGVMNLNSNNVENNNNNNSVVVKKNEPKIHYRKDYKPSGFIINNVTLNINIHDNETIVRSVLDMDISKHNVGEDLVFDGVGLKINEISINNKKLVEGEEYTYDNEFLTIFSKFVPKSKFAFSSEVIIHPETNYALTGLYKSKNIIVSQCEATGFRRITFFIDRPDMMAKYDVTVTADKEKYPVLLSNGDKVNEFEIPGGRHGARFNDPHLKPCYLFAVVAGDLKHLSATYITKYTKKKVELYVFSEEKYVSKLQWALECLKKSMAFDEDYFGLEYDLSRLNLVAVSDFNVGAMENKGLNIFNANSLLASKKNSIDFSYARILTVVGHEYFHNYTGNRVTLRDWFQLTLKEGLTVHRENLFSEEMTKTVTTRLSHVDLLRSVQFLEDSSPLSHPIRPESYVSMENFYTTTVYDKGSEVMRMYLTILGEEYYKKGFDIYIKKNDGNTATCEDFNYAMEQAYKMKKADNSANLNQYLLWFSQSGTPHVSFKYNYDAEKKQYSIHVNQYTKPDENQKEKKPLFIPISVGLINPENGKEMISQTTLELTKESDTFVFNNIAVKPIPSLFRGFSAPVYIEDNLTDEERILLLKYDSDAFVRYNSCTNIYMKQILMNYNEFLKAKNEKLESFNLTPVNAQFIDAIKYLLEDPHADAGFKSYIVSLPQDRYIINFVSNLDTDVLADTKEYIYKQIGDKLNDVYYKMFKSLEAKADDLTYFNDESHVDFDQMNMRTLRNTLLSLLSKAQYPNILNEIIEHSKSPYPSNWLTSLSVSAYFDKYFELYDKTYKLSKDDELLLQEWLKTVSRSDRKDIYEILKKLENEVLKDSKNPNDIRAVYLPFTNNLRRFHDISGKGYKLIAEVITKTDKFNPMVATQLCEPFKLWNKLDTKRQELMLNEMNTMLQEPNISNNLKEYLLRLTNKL
# BJ = experiment: growth inhibition of engineered Ras-driven BJ cells – cell-based, alamar blue fluorescence, cherrypicked samples, dose response (AID 2631); type: functional; settings: Homo sapiens;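 further: confirmatory dose-response assay in RAS-dependent BJ fibroblasts engineered with TERT, LT and ST, with cytotoxicity read by fluorescence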
# [11] = CCR5-tropic HIV-1 fusion blockers – cell-based, CCR5-tropic Env, dose response (AID 2279); type: functional
# [12] = luciferase reporter signal suppression in cells – H4 neuroglioma cells, luminescence, dose response (AID 1990); type: functional, cell-based
# Paired box protein Pax-8 = Paired box protein Pax-8 (Homo sapiens, UniProt Q06710); experiment: PAX8 transcriptional activity inhibition in RMG-I – RMG-I cells, luciferase, cherry-pick, dose response (AID 687027); type: functional, cell-based;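 further: luciferase reporter driven by Pax8 target thyroperoxidase promoter measured by SteadyGlo luminescence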
# [13] = HIV-1 AD8 envelope cell-cell fusion blockers – cherry-pick, dose response (AID 652062); type: functional, cell-based;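 further: luciferase signal from cell-cell fusion driven by HIV-1 clade B AD8 Env; potency is for inhibitors of fusion seen as a drop in luminescence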
# [14] = viability loss in CEM21 cells – cell-based, CellTiter-Glo luminescence, cherry-picked, cytotoxicity control for viral fusion inhibitor project, dose response (AID 652042); type: functional;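 further: potency for signal decrease meaning cytotoxicity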
# [15] = off-target signal loss in HeLa-CEM21 co-culture – HeLa F-luc CTL cells, cherry-picked, counter-screen for HIV-1 Env fusion inhibitor project, dose response (AID 652040); type: functional, cell-based;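 further: potency for signal decrease marking cytotoxic or nonspecific inhibition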
# [16] = biological target: T3, Neuropeptide Y receptor type 1 (Homo sapiens, UniProt P25929); experiment: Fluorescence-based counterscreen for agonists of NPY-Y2: cell-based high-throughput dose response assay for agonists of NPY-Y1.; type: functional
# T3 sequence (P25929 whole entry): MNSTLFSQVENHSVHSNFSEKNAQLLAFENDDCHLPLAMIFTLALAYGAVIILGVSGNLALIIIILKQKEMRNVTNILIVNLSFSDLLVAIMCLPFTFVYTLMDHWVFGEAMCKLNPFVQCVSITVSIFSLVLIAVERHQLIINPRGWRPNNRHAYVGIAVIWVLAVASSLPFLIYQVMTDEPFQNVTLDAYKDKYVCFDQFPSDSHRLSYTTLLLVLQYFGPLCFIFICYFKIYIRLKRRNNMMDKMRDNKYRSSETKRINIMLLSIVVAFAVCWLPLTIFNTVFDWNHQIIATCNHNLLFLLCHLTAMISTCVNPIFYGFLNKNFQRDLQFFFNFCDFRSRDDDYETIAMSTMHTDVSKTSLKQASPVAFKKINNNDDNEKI
# HEK293 [17] = experiment: Fluorescence-based counterscreen for potentiators or agonists of NPY-Y2: cell-based high-throughput dose response assay to identify inhibitors of cyclic nucleotide gated ion channel (CNGC) activity. In this assay, the parental HEK293 cell line transfected with a cyclic-nucleotide gated ion channel (CNGC)-based cAMP sensor is used to measure inhibition of isoproterenol-induced CNGC activity by test compound.; type: functional; settings: Homo sapiens
# [18] = blockers of HIV-1 envelope-mediated cell-cell fusion – cherry-pick, dose response (AID 652057); type: functional, cell-based
# [19] = biological target: T4, Neuropeptide Y receptor type 2 (Homo sapiens, UniProt P49146); experiment: Fluorescence-based cell-based high-throughput dose response assay for agonists of NPY-Y2. [Related pubchem assays: 1703 (Screening assay (CNGC inhibitors).), 1359 (Screening assay (NPY-Y2 potentiators or agonists).), 1304 (Screening assay (NPY-Y1 potentiators or agonists).), 1710 (Screening assay (NPY-Y2 agonists).), 1791 (Summary AID.)]; type: functional
# T4 sequence (P49146 whole entry): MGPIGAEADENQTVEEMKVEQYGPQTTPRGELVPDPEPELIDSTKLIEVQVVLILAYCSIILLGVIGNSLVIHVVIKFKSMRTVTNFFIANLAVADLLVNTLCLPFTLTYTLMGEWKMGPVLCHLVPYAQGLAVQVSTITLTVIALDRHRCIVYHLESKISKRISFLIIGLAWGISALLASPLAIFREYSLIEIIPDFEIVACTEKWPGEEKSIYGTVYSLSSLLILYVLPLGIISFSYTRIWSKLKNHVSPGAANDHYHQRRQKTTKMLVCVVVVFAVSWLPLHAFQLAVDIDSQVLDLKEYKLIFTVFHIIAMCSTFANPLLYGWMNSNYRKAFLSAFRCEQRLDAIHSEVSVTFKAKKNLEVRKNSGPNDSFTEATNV
# Jurkat = experiment: SAR Analysis of small molecule inhibitors of T-cell specific antigen receptor-induced NF-kB activation in a Jurkat cell line using a luminescence assay - Set 2. [Related pubchem assays (depositor defined):AID435003, AID435012, AID465]; type: functional, cell-based; settings: Homo sapiens
# HEK293 [20] = experiment: SAR Analysis of small molecule inhibitors of T-cell specific antigen receptor-induced NF-kB activation in a HEK-293T cell line using a luminescence assay - Set 2. [Related pubchem assays (depositor defined):AID435003, AID435012, AID489026]; type: functional, cell-based; settings: Homo sapiens
# HEK293 [21] = experiment: HEK293T cell viability loss, resazurin readout – resazurin fluorescence, cytotoxicity control for NF-kB activator project, SAR follow-up (AID 493251); type: functional, cell-based
# [22] = HEK-293T cell viability reduction – luminescence, B-cell screen hits, cytotoxicity control for BCR NF-kB inhibitor project, dose response (AID 489021); type: functional, cell-based;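 further: HEK-293T cells carrying an NF-kB luciferase reporter; cells exposed to compound for about 14 hours before viability readout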
# Chain of CAAX prenyl protease 2 (Q9Y256 whole entry): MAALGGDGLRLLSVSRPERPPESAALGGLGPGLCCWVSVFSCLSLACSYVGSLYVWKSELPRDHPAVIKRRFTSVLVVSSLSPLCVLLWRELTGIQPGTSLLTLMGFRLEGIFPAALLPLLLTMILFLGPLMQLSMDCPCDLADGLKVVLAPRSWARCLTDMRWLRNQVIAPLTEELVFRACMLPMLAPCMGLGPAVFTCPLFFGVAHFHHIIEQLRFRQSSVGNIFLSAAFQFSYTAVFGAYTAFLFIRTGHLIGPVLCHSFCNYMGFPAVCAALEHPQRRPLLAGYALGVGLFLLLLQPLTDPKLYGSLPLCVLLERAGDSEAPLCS
# Chain of Paired box protein Pax-8 (Q06710 whole entry, the tested form may be a part): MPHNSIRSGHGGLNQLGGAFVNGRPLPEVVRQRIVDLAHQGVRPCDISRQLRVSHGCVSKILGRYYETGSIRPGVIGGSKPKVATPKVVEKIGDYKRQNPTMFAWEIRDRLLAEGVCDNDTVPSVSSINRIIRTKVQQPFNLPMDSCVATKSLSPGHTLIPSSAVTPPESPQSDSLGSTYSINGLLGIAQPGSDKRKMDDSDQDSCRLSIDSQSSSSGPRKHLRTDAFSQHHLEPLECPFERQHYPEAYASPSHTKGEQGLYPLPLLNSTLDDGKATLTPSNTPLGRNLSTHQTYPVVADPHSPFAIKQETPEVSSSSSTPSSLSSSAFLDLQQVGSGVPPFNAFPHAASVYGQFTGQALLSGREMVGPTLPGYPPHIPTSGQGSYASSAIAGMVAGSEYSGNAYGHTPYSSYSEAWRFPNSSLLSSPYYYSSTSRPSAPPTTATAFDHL
# Chain of Luciferin 4-monooxygenase (P08659 whole entry): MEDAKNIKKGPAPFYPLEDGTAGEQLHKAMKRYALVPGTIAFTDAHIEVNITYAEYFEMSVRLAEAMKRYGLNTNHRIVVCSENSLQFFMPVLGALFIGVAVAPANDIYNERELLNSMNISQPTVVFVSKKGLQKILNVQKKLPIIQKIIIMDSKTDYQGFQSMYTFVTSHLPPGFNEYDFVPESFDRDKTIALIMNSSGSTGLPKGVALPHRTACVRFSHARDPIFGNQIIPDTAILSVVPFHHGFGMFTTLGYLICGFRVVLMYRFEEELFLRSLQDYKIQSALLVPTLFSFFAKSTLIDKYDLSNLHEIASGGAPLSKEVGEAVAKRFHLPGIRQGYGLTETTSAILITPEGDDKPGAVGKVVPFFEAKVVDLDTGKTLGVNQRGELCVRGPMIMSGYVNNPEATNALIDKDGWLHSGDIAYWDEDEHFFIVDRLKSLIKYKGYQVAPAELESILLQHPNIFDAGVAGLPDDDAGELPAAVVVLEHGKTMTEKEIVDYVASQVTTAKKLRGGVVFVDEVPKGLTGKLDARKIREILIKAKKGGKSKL
smiles,measurement,setting,value
Nc1cccc2nc3ccccc3cc12,EC50,[1],> 120 µM (not active)
same,EC50,HEK293 [2],> 59.7 µM (inactive)
same,EC50,HT-1080,22.8 µM (active)
same,EC50,[3],7.26 µM (active)
same,AC50,[4],4.75 µM (active)
same,AC50,CAAX prenyl protease 2,5.07 µM (active)
same,AC50,[5],54 µM (active)
same,EC50,[6],0.95 µM (active)
same,EC50,HEK293 [7],> 6.63 µM (active)
same,IC50,[8],4.9 µM (active)
same,IC50,[9],3.72 µM (active)
O=C(Nc1cc(S(=O)(=O)N2CCCCC2)ccc1Cl)c1ccccc1NS(=O)(=O)c1ccc(F)cc1,AC50,[10],25.6 µM (active)
same,AC50,INS1,3.42 µM (active)
same,IC50,Aminopeptidase N,44.9 µM (active)
same,EC50,BJ,> 133 µM (inactive)
same,IC50,[11],2 µM (active)
same,EC50,[1],13.7 µM (active)
same,EC50,[12],13.8 µM (active)
same,AC50,Paired box protein Pax-8,5.08 µM (active)
same,AC50,[13],10.8 µM (active)
same,EC50,[3],> 60 µM (not active)
same,AC50,[14],32.9 µM (active)
same,AC50,[15],6.21 µM (active)
same,EC50,[16],12.7 µM (not active)
same,AC50,CAAX prenyl protease 2,20.7 µM (active)
same,EC50,HEK293 [17],4.53 µM (active)
same,AC50,[18],28.4 µM (active)
same,EC50,[19],25.6 µM (not active)
CCNC(=O)CCc1nc(-c2ccc(C(C)(C)C)cc2)no1,IC50,Jurkat,> 79 µM (inactive)
same,IC50,HEK293 [20],34 µM (inactive)
same,IC50,"HEK293 [21]; Homo sapiens, HEK293",76.1 µM (inactive)
same,IC50,HEK293 [21]; hek293,79.3 µM (inactive)
same,IC50,[22],> 80 µM (inactive)
